# Reference: patent US5698523A, “Acylated enol derivatives as prodrugs of elastase inhibitors” (Merrell Pharmaceuticals Inc., priority 1996, dated 1997)
# pKi: −log10 of the molar value.
# Molecular target: T1, Human neutrophil elastase (Homo sapiens, UniProt P08246)
# T1 construct: Enzyme was isolated from human sputum; from tissue; host or cells: human sputum
# T1 sequence (P08246 30-267): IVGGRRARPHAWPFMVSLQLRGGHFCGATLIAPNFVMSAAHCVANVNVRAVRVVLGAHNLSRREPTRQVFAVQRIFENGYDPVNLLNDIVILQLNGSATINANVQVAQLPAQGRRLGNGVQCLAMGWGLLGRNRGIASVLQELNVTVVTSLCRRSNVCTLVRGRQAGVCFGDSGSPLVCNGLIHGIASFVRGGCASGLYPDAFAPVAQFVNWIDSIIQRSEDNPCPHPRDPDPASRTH
# Experiment: In vitro assay of human neutrophil elastase in the presence of prodrug and porcine liver esterase
# Type: biochemical
# Conditions: for time course / onset of inhibition of elastase compared with MDL 103,279: 66 nM compound + porcine liver esterase, FIG. 2
# Protocol: Human neutrophil elastase was assayed in vitro using N-MeOSuc-Ala-Ala-Pro-Val-p-nitroanilide, available commercially, as substrate. The assay techniques are similar to those described by Mehdi, et al., Biochemical and Biophysical Research Communications, 166, 595 (1990). The assay mixture consisted of partially purified elastase and substrate (0.2 mM) in 0.1M HEPES (pH 7.5), 0.5M NaCl, 10% DMSO and 0.1% Brij 35. The reaction (3.0 mL, in a plastic cuvette) was maintained at 37° C. and the hydrolysis of the substrate was followed in the presence of 66 nM of MDL 103,279 and 12.5 units of porcine liver esterase (Sigma Chemical Co., cat. no. E-3128). Enzyme was isolated from human sputum, although recently it has become commercially available. The time course of the reaction was followed for 60 min. […] From the final rate, a Ki of 25 nM was calculated for the final inhibitory species, presumed to be MDL 101,146 (as disclosed in European Pat. Appl. OPI No. 0529568, published Mar. 3, 1993). This is consistent with the Ki obtained independently for MDL 101,146. The Ki for MDL 103,279, the prodrug, was estimated from the initial rate to be greater than 2 μM. To rule out interference of the esterase with the elastase assay, or a significant spontaneous (i.e. non-enzymatic) hydrolysis rate of MDL 103,279, the following control experiments, as portrayed in FIG. 1, were performed: (A) elastase+elastase substrate; (B) elastase+elastase substrate+porcine liver esterase; (C) elastase+elastase substrate+MDL 103,279; as well as (D) elastase+elastase substrate+esterase+MDL 103,279.
"half-time of the progressive increase in extent of inhibition of elastase (66 nM compound, 12.5 units porcine liver esterase, 37° C., followed for 60 min)","pKi (66 nM compound, 12.5 units porcine liver esterase, pH 7.5, 37° C., read-out: Ki of the prodrug estimated from the initial rate)","time course / onset of inhibition of elastase compared with MDL 103,279",SMILES
approximately 10 min,< 5.70,,"CC(=O)OC(=C(NC(=O)[C@@H]1CCCN1C(=O)[C@@H](NC(=O)c1ccc(C(=O)N2CCOCC2)cc1)C(C)C)C(C)C)C(F)(F)C(F)(F)F [MDL 103,279, (E)-N-[4-(4-Morpholinylcarbonyl)benzoyl]-L-valyl-N-[2-(acetyloxy)-3,3,4,4,4-pentafluoro-1-(1-methylethyl)-1-butenyl]-L-prolinamide]"
,,same time course,"CCC(=O)OC(=C(NC(=O)[C@@H]1CCCN1C(=O)[C@@H](NC(=O)c1ccc(C(=O)N2CCOCC2)cc1)C(C)C)C(C)C)C(F)(F)C(F)(F)F [MDL 104,226, (E)-N-[4-(4-Morpholinylcarbonyl)benzoyl]-L-valyl-N-[3,3,4,4,4-pentafluoro-1-(1-methylethyl)-2-(1-oxopropoxy)-1-butenyl]-L-prolinamide]"
,,significantly slower,"CC(=O)OC(=C(NC(=O)[C@@H]1CCCN1C(=O)[C@@H](NC(=O)c1ccc(C(=O)N2CCOCC2)cc1)C(C)C)C(C)C)C(F)(F)C(F)(F)F [MDL 105,457, (Z)-N-[4-(4-Morpholinylcarbonyl)benzoyl]-L-valyl-N-[2-(acetyloxy)-3,3,4,4,4-pentafluoro-1-(1-methylethyl)-1-butenyl]-L-prolinamide]"
,,same time course,"CC(C)C(=O)OC(=C(NC(=O)[C@@H]1CCCN1C(=O)[C@@H](NC(=O)c1ccc(C(=O)N2CCOCC2)cc1)C(C)C)C(C)C)C(F)(F)C(F)(F)F [MDL 105,658, (E)-N-[4-(4-Morpholinylcarbonyl)benzoyl]-L-valyl-N-[3,3,4,4,4-pentafluoro-1-(1-methylethyl)-2-(2-methyl-1-oxopropoxy)-1-butenyl]-L-prolinamide]"
